# According to patent US9132131B2, “Use of adenosine A3 receptor agonists for treatment of neuropathic pain” (Saint Louis University, priority 2011, dated 2015):
# Where “and” joins values, the source holds several entries; their conditions need not be identical. Identical values can stand only once. Like-named read-outs stand apart in the source and are kept apart here.
# Tests used:
# [1] = tested on: CCI of the sciatic nerve (mechano-allodynia); test: CCI model of neuropathic pain, mechano-allodynia (von Frey PWT); format: in vivo, mice; settings: for effect on PWT in contralateral paws / ED50 at peak reversal of mechano-allodynia when combined with IB-MECA: D7 after CCI; for effect on PWT in contralateral paws: drug alone; for reversal of mechano-allodynia in ipsilateral paws: single dose D7, IB-MECA 0.2-2, CI-IB-MECA 0.6, MRS1898 0.5 μmol/kg i.p., morphine 0.11-35 s.c., gabapentin 18-584 i.p., amitriptyline 3-191 μmol/kg oral; for effect of antagonist pretreatment on anti-allodynic effect of CI-IB-MECA or MRS1898: 15 min before CI-IB-MECA 0.6 or MRS1898 0.5 μmol/kg, DPCPX and SCH-442416 with MRS1898 only; for effect of antagonist pretreatment on anti-allodynic effect of IB-MECA: 15 min before IB-MECA 0.5 μmol/kg, MRS1523 5, DPCPX 2, SCH-442416 0.2 μmol/kg; for effect of antagonist given alone on ipsilateral or contralateral PWT / increase of potency by IB-MECA: D7; for effect of antagonist given alone on ipsilateral or contralateral PWT: MRS1523 5, DPCPX 2, SCH-442416 0.2, naloxone 25 μmol/kg; for efficacy of IB-MECA compared with this drug: D7, time of peak reversal (FIG. 7); for ED50: Mus musculus, read-out: ED50, reversal of mechano-allodynia; for time of maximal reversal of mechano-allodynia: after single administration on D7; for increase of potency by IB-MECA: co-administered IB-MECA 0.2 μmol/kg; for ED50 at peak reversal of mechano-allodynia when combined with IB-MECA: mice, co-administered with IB-MECA 0.2 μmol/kg; for fold less potent than IB-MECA in reversing mechano-allodynia: ratio of ED50 values, D7, time of peak reversal
# Protocol: CCI model of neuropathic pain. CCI to the sciatic nerve of the left hind leg in mice was performed under general anaesthesia using the well-characterized Bennett model. Briefly, mice (weighing 25-30 g at the time of surgery) were anesthetized with 3% isoflurane/100% O2 inhalation and maintained on 2% isoflurane/100% O2 for the duration of surgery. The left thigh was shaved, scrubbed with Nolvasan® and a small incision (1-1.5 cm in length) was made in the middle of the lateral aspect of the left thigh to expose the sciatic nerve. The nerve was loosely ligated around the entire diameter of the nerve at three distinct sites (spaced 1 mm apart) using silk sutures (6.0). The surgical site was closed with a single muscle suture and a skin clip. Pilot studies established that under our experimental conditions peak mechano-allodynia develops by day 5-day 7 (D5-D7) following CCI. Test substances or their vehicles were given subcutaneously (s.c.), intraperitoneally (i.p.) or orally by gavage (0.1 ml) at peak mechano-allodynia (D7).
# Behavioral testing. […] The plantar aspect of hindpaws were probed three times with calibrated von Frey filaments (Stoelting, mice: 0.07-2.00 grams; rats: 0.407-26 grams) according to the “up-and-down” method. […] Briefly, each rat was placed in a Plexiglas chamber (28×40×35-cm, wire mesh floor) and after its acclimation, a servo-controlled mechanical stimulus was applied to the plantar surface that exerted a progressively increasing punctate pressure up to 50 grams within 10 seconds. Mechanical threshold was assessed three times at each time point to yield a mean value, reported as PWT (grams). […] Mechano-hyperalgesia was assessed in rats by the Randall and Sellitto paw pressure test using an analgesiometer (Ugo Basile). The nociceptive threshold was defined as the force (grams) at which the rat withdrew its paw (cut off set at 250 grams).
# Determining ED50 values. Dose response data were curve-fitted using the least sum of square method by a normalized 4-parameter, variable slope non-linear analysis of the % Reversal of Mechano-allodynia in CCI and % Prevention of Mechano-allodynia or Mechano-hyperalgesia in CIPN using GraphPad Prism (Release 5.03, GraphPad Software, Inc.) from which the ED50 was determined and reported with the 95% confidence interval (95% CI). In the CCI model, the % Reversal of Mechano-allodynia=(PWT1h−PWTD7)/(PWTD0−PWTD7)×100, where PWTD0=Paw Withdrawal Threshold (g) at D0, PWT1h=Paw Withdrawal Threshold (g) at 1 hour after the administration of IB-MECA, gabapentin, amitriptyline, or combinations of IB-MECA with gabapentin or amitriptyline, and PWTD7=Paw Withdrawal Threshold (grams) at D7 prior to drug administration.
# Statistical Analysis. Data are expressed as mean±SD for n animals. Behavioral data were analyzed by two-way repeated measures ANOVA with Bonferroni comparisons (full time course studies) or one-way ANOVA Dunnett's comparisons (1 hour behavioral data). The dose response curves were compared to a globally fitted curve using the extra sum-of-squares F-test comparisons to determine whether the data represented distinct curves between treatments. Significant differences were defined at a P<0.05. All statistical analysis was performed using GraphPad Prism (v5.03, GraphPad Software, Inc.).
# [2] = tested on: paclitaxel-induced neuropathic pain; test: Paclitaxel-induced neuropathic pain (mechano-allodynia, mechano-hyperalgesia); format: in vivo, rats; settings: 0.2 μmol/kg/d (not shown)
# [3] = cited from earlier work
compound,measurement,setting,value
"CNC(=O)[C@H]1O[C@@H](n2cnc3c(NCc4cccc(I)c4)nc(Cl)nc32)[C@H](O)[C@@H]1O [CI-IB-MECA, 2-chloro-N^6-(3-iodobenzyl)-adenosine-5′-N-methyluronamide]",effect on PWT in contralateral paws,[1],had no effect
same,reversal of mechano-allodynia in ipsilateral paws,[1],reversed mechano-allodynia
same,effect on paclitaxel-induced neuropathic pain,[2],completely blocked
"CCCn1c(=O)c2[nH]c(C3CCCC3)nc2n(CCC)c1=O [DPCPX, 8-cyclopentyl-1,3-dipropylxanthine]",effect of antagonist pretreatment on anti-allodynic effect of CI-IB-MECA or MRS1898,[1],did not prevent
same,effect of antagonist pretreatment on anti-allodynic effect of IB-MECA,[1],not affected
same,effect of antagonist given alone on ipsilateral or contralateral PWT,[1],lacked effect
"COc1ccc(CCCn2ncc3c2nc(N)n2nc(-c4ccco4)nc32)cc1 [SCH-442416, 2-(2-furanyl)-7-[3-(4-methoxyphenyl)propyl]-7Hpyrazolo[4,3-e][1,2,4]triazolo[1,5-C]pyrimidin-5-amine]",effect of antagonist pretreatment on anti-allodynic effect of CI-IB-MECA or MRS1898,[1],did not prevent
same,effect of antagonist pretreatment on anti-allodynic effect of IB-MECA,[1],not affected
same,effect of antagonist given alone on ipsilateral or contralateral PWT,[1],lacked effect
CN(C)CCC=C1c2ccccc2CCc2ccccc21 [amitriptyline],efficacy of IB-MECA compared with this drug,[1],equiefficacious
same,effect on PWT in contralateral paws,[1],had no effect
same,ED50,[1],31 µmol/kg
same,time of maximal reversal of mechano-allodynia,[1],1 h
same,increase of potency by IB-MECA,[1],2 fold
same,ED50 at peak reversal of mechano-allodynia when combined with IB-MECA,[1],13 µmol/kg
same,fold less potent than IB-MECA in reversing mechano-allodynia,[1],> 75 fold and 75 fold
same,reversal of mechano-allodynia in ipsilateral paws,[1],dose-dependent reversal of mechano-allodynia
N.N.O=C([O-])C1(C(=O)[O-])CCC1.[Pt+2] [carboplatin],incidence of CIPN,[3]; subjects receiving the drug,40%
N.N.[Cl][Pt][Cl] [cisplatin],incidence of CIPN,[3]; in vivo,70-90%
CC(=O)O[C@@]12CO[C@@H]1C[C@H](O)[C@@]1(C)C(=O)[C@H](O)C3=C(C)[C@@H](OC(=O)[C@H](O)[C@@H](NC(=O)OC(C)(C)C)c4ccccc4)C[C@@](O)([C@@H](OC(=O)c4ccccc4)[C@H]21)C3(C)C [docetaxel],incidence of CIPN,[3]; subjects receiving the drug,60%
"NCC1(CC(=O)O)CCCCC1 [gabapentin, 2-[1-(aminomethyl)cyclohexyl]acetic acid]",efficacy of IB-MECA compared with this drug,[1],equiefficacious
same,effect on PWT in contralateral paws,[1],had no effect
same,ED50,[1],140 µmol/kg
same,time of maximal reversal of mechano-allodynia,[1],1 h
same,increase of potency by IB-MECA,[1],> 5 fold
same,ED50 at peak reversal of mechano-allodynia when combined with IB-MECA,[1],27 µmol/kg
same,fold less potent than IB-MECA in reversing mechano-allodynia,[1],> 350 fold
same,reversal of mechano-allodynia in ipsilateral paws,[1],dose-dependent reversal of mechano-allodynia
C=CCN1CC[C@]23c4c5ccc(O)c4O[C@H]2C(=O)CC[C@@]3(O)[C@H]1C5 [naloxone],effect of antagonist given alone on ipsilateral or contralateral PWT,[1],did not affect
same,effect of naloxone on reversal of mechano-allodynia by A3AR agonists,[1]; naloxone 25 μmol/kg i.p. 15 minutes before IB-MECA or MRS1898 0.5 μmol/kg,did not interfere
